In data set [1] the test system is MRSA (ATCC 43300). As to the kind of experiment: microdilution susceptibility test. In kind it is cell-based, Staphylococcus aureus. The settings on record: N=3. In general terms: Broth dilution looks for growth in wells or tubes with falling amounts of substance.
A further data set concerns CIMRSA 1. Briefly: microdilution susceptibility test. In kind it is cell-based, Staphylococcus aureus. Conditions: N=3.
The test system of the next data set is CIMRSA 2. Briefly: microdilution susceptibility test. In kind it is cell-based, Staphylococcus aureus. Conditions: N=3.
Another data set deals with CIMRSA 3. As to the kind of experiment: microdilution susceptibility test. Conditions: N=3. It counts as cell-based, Staphylococcus aureus.
For the next data set, the system named is CIMRSA 4. As to the kind of experiment: microdilution susceptibility test. It counts as cell-based, Staphylococcus aureus. The settings on record: N=3.
Another data set has as its system CIMRSA 5. Briefly: microdilution susceptibility test. It counts as cell-based, Staphylococcus aureus. Conditions: N=3.
Another data set concerns CIMRSA 6. Briefly: microdilution susceptibility test. It counts as cell-based, Staphylococcus aureus. Conditions: N=3.
The next data set has as its system CIMRSA 7. Briefly: microdilution susceptibility test. It counts as cell-based, Staphylococcus aureus. Conditions: N=3.
The next data set relates to E. coli (ATCC 25922). As to the kind of experiment: microdilution susceptibility test. In kind it is cell-based, Escherichia coli. Conditions: N=3.
Another data set relates to Vero cells. Briefly: CTG Luminescent Cell Viability Assay. It counts as cell-based, monkey. Conditions: N=3.
For data set [2], the system named is PBMC isolated from healthy volunteers. As to the kind of experiment: cytotoxicity in peripheral blood mononuclear cells. In kind it is cell-based, human. Conditions: N=3.
The target in another data set is S. aureus DNA gyrase (Staphylococcus aureus, UniProt P0A0K8+P20831). As to the kind of experiment: DNA gyrase supercoiling inhibition. In kind it is biochemical.
The test system of data set [3] is MRSA (ATCC 43300). The settings on record: cited from earlier work.
Data set [4] relates to Staphylococcus saprophyticus. Conditions: cited from earlier work.
For another data set, the system named is Bacillus cereus. Conditions: cited from earlier work.
The test system of a further data set is Klebsiella pneumoniae. Conditions: cited from earlier work.
In another data set the test system is Pseudomonas aeruginosa. The settings on record: cited from earlier work.
The test system of data set [5] is clinical isolates of MRSA. The settings on record: cited from earlier work.
The test system of the next data set is eight MRSA strains. Briefly: antibacterial activity against eight MRSA strains. It counts as cell-based, Staphylococcus aureus. Conditions: 6 compared with 2.
The nature of data set [6]: CTG Luminescent Cell Viability Assay. It counts as cell-based, monkey. The settings on record: monkey, Vero cells.

Like-named read-outs stand apart in the source and are kept apart here. Where only a bound is given, the exact number is not on record here.

Sequence of S. aureus DNA gyrase (P20831 whole entry): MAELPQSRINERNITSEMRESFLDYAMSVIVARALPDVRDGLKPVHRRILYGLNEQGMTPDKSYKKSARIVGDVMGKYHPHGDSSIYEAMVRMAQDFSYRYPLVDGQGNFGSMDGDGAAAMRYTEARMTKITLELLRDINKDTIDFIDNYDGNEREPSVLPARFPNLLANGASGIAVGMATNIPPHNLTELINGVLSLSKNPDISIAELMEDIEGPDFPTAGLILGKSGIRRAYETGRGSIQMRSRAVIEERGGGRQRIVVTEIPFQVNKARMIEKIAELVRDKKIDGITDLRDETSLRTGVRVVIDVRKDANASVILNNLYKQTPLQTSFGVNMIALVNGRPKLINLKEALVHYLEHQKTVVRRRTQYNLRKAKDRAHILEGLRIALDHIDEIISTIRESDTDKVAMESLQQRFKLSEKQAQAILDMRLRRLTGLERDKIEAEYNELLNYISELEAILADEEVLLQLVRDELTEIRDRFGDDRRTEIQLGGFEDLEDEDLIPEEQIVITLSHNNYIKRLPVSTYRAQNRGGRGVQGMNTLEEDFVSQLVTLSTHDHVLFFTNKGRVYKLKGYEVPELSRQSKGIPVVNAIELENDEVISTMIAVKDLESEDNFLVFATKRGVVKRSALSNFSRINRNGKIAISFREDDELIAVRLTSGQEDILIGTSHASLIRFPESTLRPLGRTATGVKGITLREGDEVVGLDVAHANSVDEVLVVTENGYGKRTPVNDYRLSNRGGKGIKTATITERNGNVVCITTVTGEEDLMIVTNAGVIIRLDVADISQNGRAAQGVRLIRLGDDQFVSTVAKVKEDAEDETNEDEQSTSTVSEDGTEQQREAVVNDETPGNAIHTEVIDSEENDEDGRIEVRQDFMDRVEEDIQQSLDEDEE
Sequence of S. aureus DNA gyrase (P0A0K8 whole entry): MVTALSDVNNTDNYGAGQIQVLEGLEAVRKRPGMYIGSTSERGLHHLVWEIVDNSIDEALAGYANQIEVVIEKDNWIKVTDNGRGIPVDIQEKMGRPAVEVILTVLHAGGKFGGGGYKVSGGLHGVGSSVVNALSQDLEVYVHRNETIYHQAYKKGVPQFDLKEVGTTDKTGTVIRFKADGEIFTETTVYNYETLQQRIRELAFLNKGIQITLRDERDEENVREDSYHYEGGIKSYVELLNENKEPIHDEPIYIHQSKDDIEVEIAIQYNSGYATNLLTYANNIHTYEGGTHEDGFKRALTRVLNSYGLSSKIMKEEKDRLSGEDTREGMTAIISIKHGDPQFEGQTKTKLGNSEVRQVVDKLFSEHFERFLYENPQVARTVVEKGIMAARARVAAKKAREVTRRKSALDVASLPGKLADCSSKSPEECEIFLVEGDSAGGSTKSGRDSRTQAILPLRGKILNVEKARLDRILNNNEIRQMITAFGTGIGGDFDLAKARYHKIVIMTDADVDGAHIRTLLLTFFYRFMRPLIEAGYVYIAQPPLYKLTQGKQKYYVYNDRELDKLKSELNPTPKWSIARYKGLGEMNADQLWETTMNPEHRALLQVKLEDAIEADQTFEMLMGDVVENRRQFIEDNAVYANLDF

For 2-hexadecynoic acid [compound 4], the “IC50 ± SEM” value in the data set with MRSA (ATCC 43300) [1] worked out at 5.1 ± 0.1 µg/mL; in the data set with CIMRSA 1, 4.2 ± 0.1 µg/mL; in the data set on CIMRSA 2, 5.0 ± 0.5 µg/mL; in the data set on CIMRSA 3 it was 6.3 ± 0.2 µg/mL; with CIMRSA 4 it was 6.5 ± 0.1 µg/mL; with CIMRSA 5, 5.1 ± 0.2 µg/mL. Besides, the “IC50 ± SEM” value in the data set with CIMRSA 6 amounted to 5.7 ± 0.8 µg/mL; in the data set with CIMRSA 7, 4.7 ± 0.3 µg/mL. The MIC (in general, the lowest concentration that inhibits growth of the organism) against MRSA (ATCC 43300) [1] is 7.8 µg/mL; against CIMRSA 1, 7.8 µg/mL; against CIMRSA 2, 7.8 µg/mL; in the data set with CIMRSA 3, 15.6 µg/mL; in the data set on CIMRSA 4 it was 15.6 µg/mL; in the data set on CIMRSA 5, 7.8 µg/mL. The MIC against CIMRSA 6 was 7.8 µg/mL; with CIMRSA 7, 7.8 µg/mL; in the data set with E. coli (ATCC 25922) it was >1,000 μg/mL; in the data set with MRSA (ATCC 43300) [3] it was 15.6 µg/mL; in data set [4], 15.6 µg/mL; in the data set with Bacillus cereus, 31.3 µg/mL. Moreover, the MIC with Klebsiella pneumoniae was 7.8 µg/mL; in the data set on Pseudomonas aeruginosa, 125 µg/mL; in [5], 3.9 µg/mL. The “Vero cells cytotoxicity IC50±SEM” value in the data set with Vero cells came to 1.6 ± 0.4 µg/mL. Besides, in data set [2], the “PBMC cytotoxicity IC50±SEM” value came to 68.9 ± 0.7 µg/mL. Further, at S. aureus DNA gyrase (4 compared with 6), the “fold more active against DNA gyrase than 6” value was found to be 3.7 fold.
For `CCCCCCCCCCCCCCCC(=O)Oc1ccc(/C=C/C(=O)/C=C/c2ccc(OC(=O)CCCCCCCCCCCCCCC)c(OC)c2)cc1OC` [C5-Curc-PA, C5-Curcumin-Palmitic Acid], the “inhibition of S. aureus DNA gyrase (in words)” value against S. aureus DNA gyrase (ethidium bromide stained gels, Fig. 2) was “not inhibitory”.
In the case of `CCCCCCCCCCCCCC#CC(=O)Oc1ccc(/C=C/C(=O)/C=C/c2ccc(OC(=O)C#CCCCCCCCCCCCCC)c(OC)c2)cc1OC` [compound 6, C5-Curcumin-2-Hexadecynoic Acid], in the data set with eight MRSA strains, the “fold increase of antibacterial activity against MRSA strains relative to 2” value is listed as 4-8 fold. Moreover, in [6], the IC50 (usually the concentration that inhibits the measured activity by half) is > 100 µg/mL.

(Values after paper PMC4663078 (Bioorganic & medicinal chemistry letters, 2015).)
